The source of these data is publication PMC7360964, “Auto‐inhibition of Mif2/CENP‐C ensures centromere‐dependent kinetochore assembly in budding yeast” (The EMBO Journal, 2020).

Assay [1] deals with Mtw1‐GFP kinetochores. The assay is described as follows: Kinetochore microscopy (Mtw1-GFP, Spc42-mCherry) in Mif2-overexpressing cells. It counts as cell-based, budding yeast. The note with it: large-budded cells, galactose, 100 cells per strain, 2 independent experiments. Here is the method: Figure 8 Auto‐inhibition of Mif2 is crucial for chromosome segregation and cell viability • Phenotypic analysis of Mif2 mutants using a galactose‐inducible overexpression system. Strains harboring the indicated Mif2 expression constructs on pESC plasmids were plated in serial dilution on doHIS‐glucose or doHIS‐raffinose/galactose plates and incubated at 30°C. • Serial dilution assay of chromosomally integrated Mif2 variants under the control of the pGAL promoter. Strains were plated on YEP‐glucose and YEP‐raffinose/galactose plates and incubated at 25°C. • Analysis of chromosome segregation in strains from (B). Distribution of fluorescently labeled chromosome III was analyzed in large‐budded cells 16 h after switching the medium to galactose. Scale bar represents 2 μm. • Microscopic analysis of kinetochores in Mif2‐overexpressing cells visualizing Mtw1‐GFP and Spc42‐mCherry. Images of representative large‐budded cells after 16 h in galactose are shown. One kinetochore cluster is enlarged in the white box for each strain. Scale bar represents 5 μm. […] Only large‐budded cells were included in the analysis. • Quantification of (D) in which large‐budded cells were classified according to their Mtw1‐GFP signal into the four indicated groups. A total of 100 cells were quantified for every strain. Mean values of the three indicated groups were calculated and plotted in a bar chart. […]

Assay [2] deals with Mif2‐FRB strains. The assay is described as follows: Anchor-away growth assay, Mif2 alleles. Format: cell-based, budding yeast. The note with it: rapamycin.
Assay [3] concerns yeast growth. The assay is described as follows: Galactose-inducible overexpression growth assay (serial dilution). It counts as cell-based, budding yeast. The note with it: two-micron pESC plasmid, 30°C. The source says:
What is the consequence of expressing Mif2^Ame1‐N swap in cells? […] To assess this effect in a more systematic manner, we expressed Mif2‐wt, Mif2‐ΔN, or Mif2^Ame1‐N swap under the control of a galactose‐inducible promoter in an otherwise wild‐type background. […] To further analyze the toxic effect of Mif2^Ame1‐N swap in cells, we stably integrated the different Mif2 versions under the control of the GAL10 promoter at the URA3 locus and again analyzed growth on plates. We included an additional strain in which Mif2 swap was mutated so that it cannot bind Mtw1c (R10E mutation in the RxxG motif). […]
Figure 8 Auto‐inhibition of Mif2 is crucial for chromosome segregation and cell viability • Phenotypic analysis of Mif2 mutants using a galactose‐inducible overexpression system. […] Distribution of fluorescently labeled chromosome III was analyzed in large‐budded cells 16 h after switching the medium to galactose. […] Only large‐budded cells were included in the analysis. • Quantification of (D) in which large‐budded cells were classified according to their Mtw1‐GFP signal into the four indicated groups. A total of 100 cells were quantified for every strain. Mean values of the three indicated groups were calculated and plotted in a bar chart. […]

Assay [4] has as its system budding yeast. The conditions noted are these: ref Hornung et al, 2014; cited from earlier work. The source says:
Figure 1 Ame1 and Mif2 are Mtw1c receptors that promote outer kinetochore assembly Left panel: Comparison of kinetochore assembly plans. Generally, inner kinetochores are represented by the […] centromere‐associated network (CCAN) of which Ame1 and Mif2 are the only essential subunits in S. cerevisiae. Right panel: Among other functions, Ame1 and Mif2 both act as receptors for the outer kinetochore component Mtw1c using short binding motifs at their N‐termini. An Ame1ΔN is lethal, while a Mif2ΔN mutant is viable. Two different scenarios for Mtw1c‐receptor configurations are indicated.

The subject of assay [5] is Mtw1‐Nnf1 complex (MN). The assay is described as follows: Flag pulldown of MN by Mif2 variants. It counts as binding, budding yeast. The conditions noted are these: bait 1 μM, MN 3 μM; Coomassie or Western blot against His-tag on Nnf1. The text has this:
(§1) If intramolecular interactions between the Mif2 N‐terminus and other parts of the molecule limit the ability to bind MN, then removing this auto‐inhibitory domain should increase the affinity for MN. […] We conclude that apart from residues in its N‐terminus, also residues in the signature motif and AT‐hook of Mif2 are responsible for the ability to adopt an auto‐inhibited conformation.
(§2) Figure 6 Mif2 auto‐inhibition depends on its Cse4 and DNA‐binding motifs • Schematic introduction of Mif2wt and Mif2‐ΔsigAT in which its Cse4 and DNA‐binding motifs have been removed. […]
(§3) The GST pulldown experiment was performed using BSA‐preblocked GSH Sepharose beads. […] Beads were washed twice in pulldown buffer, before Laemmli sample buffer was added to the beads (GST pulldown) or proteins were eluted in pulldown buffer supplemented with 1 mg/ml Flag peptide before addition of Laemmli sample buffer (Flag pulldown) and samples were analyzed on a Coomassie Brilliant Blue‐stained SDS–PAGE gel or Western blotting. […] Elution of proteins was monitored at 280 nm. 100 μl fractions were collected and analyzed by SDS–PAGE and Coomassie Brilliant Blue staining or Western blotting. […] After several washes with lysis buffer, proteins were eluted with 0.2 mg/ml 3xFlag peptide in lysis buffer, and fractions were analyzed by Western blotting. […]
(In general: A western blot detects proteins with antibodies after separation by electrophoresis.)

The test system of assay [6] is MN. The assay is described as follows: Analytical SEC of Mif2 variants with MN. It counts as binding, budding yeast. The note with it: 10 μM, 1 h at 4°C.
Description: as §1, §2, §3

With “Mif2‐ΔN: Mif2 lacking the N-terminus (Mif2-D1-35)”, the “kinetochore signal localization” value in assay [1] was “closely associated with spindle pole bodies”. Moreover, the “viability” value in assay [2] (ctf3 or chl4 deletion backgrounds) was “lethality”. Moreover, in assay [2] (ctf19Δ background), the “rescue of Mif2-FRB lethality” value was “not Mif2‐ΔN, was able to rescue the lethality”. For the same molecule, the “effect of overexpression on growth” value in assay [3] is “tolerated well and did not greatly impact yeast viability”. Also, the “viability / phenotype” value in assay [4] was “viable”.

B1: Mif2‐ΔsigAT: Mif2 variant that lacks signature motif and AT-hook (protein)
chain: MDYMKLGLKSRKTGIDVKQDIPKDEYSMENIDDFFKDDETSLISMRRKSRRKSSLFLPSTLNGDTKNVLPPFLQSYKSQDDEVVQSPSGKGDGSRRSSLLSHQSNFLSPANDFEPIEEEPEQEENDIRGNDFATPITQKLSKPTYKRKYSTRYSLDTSESPSVRLTPDRITNKNVYSDVPDLVADEDDDDRVNTSLNTSDNALLEDELEDDGFIPESEEDGDYIESDSSLDSGSDSASDSDGDNTYQEVEEEAEVNTNDNEDDYIRRQASDVVRTDSIIDRNGAKENLIPEDPNEDIIERIESGGIENGEWLKHGILEANVKISDTKEETKDEIIAFAPNLSQTEQVKDTKDENFALEIMFDKHKEYFASGILKLPAISGQKKLSNSFRTYITFHVIQGIVEVTVCKNKFLSVKGSTFQIPAFNEYAIANRGNDEAKMFFVQVTVSEDANDDNDKELDSTFDTFG
modifications: left off: Flag, C-terminal, kept
notes: Mif2 variant that lacks signature motif and AT-hook
With B1, in assay [5], the “co-purification of MN” value was “able to co‐purify a significantly increased amount of MN”. The “binding to MN by SEC” value in assay [6] is “increased binding to MN as compared to Mif2‐wt”. The “effect of overexpression on growth” value in assay [3] was “impairs growth”.
